# Results taken from US11845752B2, “Substituted imidazo[1,5-a]pyrazines for the treatment of hepatitis B” (ALIGOS THERAPEUTICS, INC., priority 2020, dated 2023).
# Where two headings read alike, the source gives them in different places.
# Tested on: HBV
# Assay: HBV-DNA antiviral assay using HepG2.117 cells (intracellular HBV DNA by qPCR)
# Type: cell-based, HBV genotype D
# Details: HBV DNA inhibition, 3 days incubation, read-out: EC50
# Method in brief: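 HepG2.117 cells (stably integrated genotype D HBV, Tet-off) seeded without doxycycline to induce pgRNA, then treated next day with 9 concentrations (4-fold dilutions, 2% DMSO) for 3 days at 37 °C. Intracellular HBV DNA quantified by qPCR against standard curve, viability by ATP content; inhibition relative to DMSO control, EC50/EC90/CC50 by non-linear regression.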
# [1] = Hepatitis B virus, HepG2.117, 72 h
SMILES,EC50 [1] [nM],EC50 [nM]
"C[C@H]1Cn2c(c(C(=O)NCc3ccccc3-c3ccncn3)n(-c3ccc(OC[C@@](C)(O)C(F)(F)F)cc3)c2=O)CN1C(=O)c1ccc(Br)c(C(F)(F)F)c1 (stereo in doubt) [Compound 82b, rac-(6S)-7-[4-bromo-3-(trifluoromethyl)benzoyl]-6-methyl-3-oxo-N-[(2-pyrimidin-4-ylphenyl)methyl]-2-[4-[rac-(2R)-3,3,3-trifluoro-2-hydroxy-2-methyl-propoxy]phenyl]-6,8-dihydro-SH-imidazo[1,5-a]pyrazine-1-carboxamide]",< 50,–
"C[C@@H]1Cn2c(c(C(=O)NCc3ccccc3-c3ccncn3)n(-c3ccc(OC[C@](C)(O)C(F)(F)F)cc3)c2=O)CN1C(=O)c1ccc(Br)c(C(F)(F)F)c1 (stereo in doubt) [Compound 83a, rac-(6R)-7-[4-bromo-3-(trifluoromethyl)benzoyl]-6-methyl-3-oxo-N-[(2-pyrimidin-4-ylphenyl)methyl]-2-[4-[rac-(2S)-3,3,3-trifluoro-2-hydroxy-2-methyl-propoxy]phenyl]-6,8-dihydro-SH-imidazo[1,5-a]pyrazine-1-carboxamide]",50 to 500,–
"C[C@H]1Cn2c(c(C(=O)NCc3ccccc3-c3ccncn3)n(-c3ccc(OC[C@](C)(O)C(F)(F)F)cc3)c2=O)CN1C(=O)c1ccc(Br)c(C(F)(F)F)c1 (stereo in doubt) [Compound 83b, rac-(6S)-7-[4-bromo-3-(trifluoromethyl)benzoyl]-6-methyl-3-oxo-N-[(2-pyrimidin-4-ylphenyl)methyl]-2-[4-[rac-(2S)-3,3,3-trifluoro-2-hydroxy-2-methyl-propoxy]phenyl]-6,8-dihydro-5H-imidazo[1,5-a]pyrazine-1-carboxamide]",50 to 500,–
"C[C@@H]1Cn2c(c(C(=O)NCc3ccccc3-c3ccccn3)n(-c3ccc(OC[C@@](C)(O)C(F)(F)F)cc3)c2=O)CN1C(=O)c1ccc(Br)c(C(F)(F)F)c1 (stereo in doubt) [Compound 89a, rac-(6R)-7-[4-bromo-3-(trifluoromethyl)benzoyl]-6-methyl-3-oxo-N-[[2-(2-pyridyl)phenyl]methyl]-2-[4-[rac-(2R)-3,3,3-trifluoro-2-hydroxy-2-methyl-propoxy]phenyl]-6,8-dihydro-5H-imidazo[1,5-a]pyrazine-1-carboxamide]",< 50,–
"C[C@H]1Cn2c(c(C(=O)NCc3ccccc3-c3ccccn3)n(-c3ccc(OC[C@@](C)(O)C(F)(F)F)cc3)c2=O)CN1C(=O)c1ccc(Br)c(C(F)(F)F)c1 (stereo in doubt) [Compound 89b, rac-(6S)-7-[4-bromo-3-(trifluoromethyl)benzoyl]-6-methyl-3-oxo-N-[[2-(2-pyridyl)phenyl]methyl]-2-[4-[rac-(2R)-3,3,3-trifluoro-2-hydroxy-2-methyl-propoxy]phenyl]-6,8-dihydro-SH-imidazo[1,5-a]pyrazine-1-carboxamide]",< 50,–
"C[C@@H]1Cn2c(c(C(=O)NCc3ccccc3-c3ccccn3)n(-c3ccc(OC[C@](C)(O)C(F)(F)F)cc3)c2=O)CN1C(=O)c1ccc(Br)c(C(F)(F)F)c1 (stereo in doubt) [Compound 90a, rac-(6R)-7-[4-bromo-3-(trifluoromethyl)benzoyl]-6-methyl-3-oxo-N-[[2-(2-pyridyl)phenyl]methyl]-2-[4-[rac-(2S)-3,3,3-trifluoro-2-hydroxy-2-methyl-propoxy]phenyl]-6,8-dihydro-5H-imidazo[1,5-a]pyrazine-1-carboxamide]",50 to 500,–
"C[C@H]1Cn2c(c(C(=O)NCc3ccccc3-c3ccccn3)n(-c3ccc(OC[C@](C)(O)C(F)(F)F)cc3)c2=O)CN1C(=O)c1ccc(Br)c(C(F)(F)F)c1 (stereo in doubt) [Compound 90b, rac-(6S)-7-[4-bromo-3-(trifluoromethyl)benzoyl]-6-methyl-3-oxo-N-[[2-(2-pyridyl)phenyl]methyl]-2-[4-[rac-(2S)-3,3,3-trifluoro-2-hydroxy-2-methyl-propoxy]phenyl]-6,8-dihydro-5H-imidazo[1,5-a]pyrazine-1-carboxamide]",50 to 500,–
"CC1Cn2c(c(C(=O)NCc3ccccc3-c3ncccn3)n(-c3ccc4c(cnn4C[C@@H](C)O)c3)c2=O)CN1C(=O)c1ccc(Br)c(C(F)(F)F)c1 (stereo in doubt) [Compound 91a, (6R*)-7-[4-bromo-3-(trifluoromethyl)benzoyl]-2-{1-[(2R)-2-hydroxypropyl]indazol-5-yl}-6-methyl-3-oxo-N-{[2-(pyrimidin-2-yl)phenyl]methyl}-5H,6H,8H-imidazo[1,5-a]pyrazine-1-carboxamide]",50 to 500,–
"CC1Cn2c(c(C(=O)NCc3ccccc3-c3ncccn3)n(-c3ccc4c(cnn4C[C@@H](C)O)c3)c2=O)CN1C(=O)c1ccc(Br)c(C(F)(F)F)c1 (stereo in doubt) [Compound 91b, (6S*)-7-[4-bromo-3-(trifluoromethyl)benzoyl]-2-{1-[(2R)-2-hydroxypropyl]indazol-5-yl}-6-methyl-3-oxo-N-{[2-(pyrimidin-2-yl)phenyl]methyl}-5H,6H,8H-imidazo[1,5-a]pyrazine-1-carboxamide]",–,50 to 500
"O=C(NCc1ccccc1-c1ncccn1)c1c2n(c(=O)n1-c1ccc(OC3CC3)cc1)C[C@@H](COCc1ccccc1)N(C(=O)c1ccc(Br)c(C(F)(F)F)c1)C2 (stereo in doubt) [Compound 130, 6-(benzyloxymethyl)-7-[4-bromo-3-(trifluoromethyl)benzoyl]-2-[4-(cyclopropoxy)phenyl]-3-oxo-N-[(2-pyrimidin-2-ylphenyl)methyl]-6,8-dihydro-5H-imidazo[1,5-a]pyrazine-1-carboxamide]",500 to 5000,–
"O=C(NCc1ccccc1-c1ncccn1)c1c2n(c(=O)n1-c1ccc(OC3CC3)cc1)C[C@@H](CO)N(C(=O)c1ccc(Br)c(C(F)(F)F)c1)C2 (stereo in doubt) [Compound 131, 7-[4-bromo-3-(trifluoromethyl)benzoyl]-2-[4-(cyclopropoxy)phenyl]-6-(hydroxymethyl)-3-oxo-N-[(2-pyrimidin-2-ylphenyl)methyl]-6,8-dihydro-5H-imidazo[1,5-a]pyrazine-1-carboxamide]",500 to 5000,–
"CC1Cn2c(c(C(=O)NCc3ccccc3-c3cccnn3)n(-c3ccc(OCC(C)(O)C(F)(F)F)cc3)c2=O)CN1C(=O)c1ccc(Br)c(C(F)(F)F)c1 (stereo not drawn) [Compound 85a, 7-(4-bromo-3-(trifluoromethyl)benzoyl)-6-methyl-3-oxo-N-(2-(pyridazin-3-yl)benzyl)-2-(4-(3,3,3-trifluoro-2-hydroxy-2-methylpropoxy)phenyl)-2,3,5,6,7,8-hexahydroimidazo[1,5-a]pyrazine-1-carboxamide]",50 to 500,–
"CC(C)(O)COc1ccc(-n2c(C(=O)NCc3ccccc3)c3n(c2=O)CCN(C(=O)c2ccc(Br)c(Cl)c2)C3)cc1 [Compound 114, N-benzyl-7-(4-bromo-3-chloro-benzoyl)-2-[4-(2-hydroxy-2-methyl-propoxy)phenyl]-3-oxo-6,8-dihydro-5H-imidazo[1,5-a]pyrazine-1-carboxamide]",50 to 500,–
"C[C@@H]1CN(c2ccc(-n3c(C(=O)NCc4ccccc4)c4n(c3=O)CCN(C(=O)c3ccc(Br)c(Cl)c3)C4)cc2)CCN1C [Compound 116, N-benzyl-7-(4-bromo-3-chloro-benzoyl)-3-oxo-2-[4-[(3R)-3,4-dimethylpiperazin-1-yl]phenyl]-6,8-dihydro-5H-imidazo[1,5-a]pyrazine-1-carboxamide]",50 to 500,–
"CC1(O)CN(c2ccc(-n3c(C(=O)NCc4ccccc4)c4n(c3=O)CCN(C(=O)c3ccc(Br)c(Cl)c3)C4)cc2)C1 [Compound 117, N-benzyl-7-(4-bromo-3-chloro-benzoyl)-2-[4-(3-hydroxy-3-methyl-azetidin-1-yl)phenyl]-3-oxo-6,8-dihydro-5H-imidazo[1,5-a]pyrazine-1-carboxamide]",50 to 500,–
"O=C(NCc1ccccc1)c1c2n(c(=O)n1-c1ccc(N3CC(O)(C(F)(F)F)C3)cc1)CCN(C(=O)c1ccc(Br)c(Cl)c1)C2 [Compound 118, N-benzyl-7-(4-bromo-3-chloro-benzoyl)-2-[4-[3-hydroxy-3-(trifluoromethyl)azetidin-1-yl]phenyl]-3-oxo-6,8-dihydro-5H-imidazo[1,5-a]pyrazine-1-carboxamide]",50 to 500,–
"O=C(NCc1ccccc1)c1c2n(c(=O)n1-c1ccc(N3CCOC(F)(F)C3)cc1)CCN(C(=O)c1ccc(Br)c(Cl)c1)C2 [Compound 119, N-benzyl-7-(4-bromo-3-chloro-benzoyl)-2-[4-(2,2-difluoromorpholin-4-yl)phenyl]-3-oxo-6,8-dihydro-5H-imidazo[1,5-a]pyrazine-1-carboxamide]",50 to 500,–
"O=C(NCc1ccccc1)c1c2n(c(=O)n1-c1ccc(N3CCOC4(CC4)C3)cc1)CCN(C(=O)c1ccc(Br)c(Cl)c1)C2 [Compound 120, N-benzyl-7-(4-bromo-3-chloro-benzoyl)-2-[4-(4-oxa-7-azaspiro[2.5]octan-7-yl)phenyl]-3-oxo-6,8-dihydro-5H-imidazo[1,5-a]pyrazine-1-carboxamide]",50 to 500,–
"O=C(NCc1ccccc1)c1c2n(c(=O)n1-c1ccc(N3CC4CCC(C3)O4)cc1)CCN(C(=O)c1ccc(Br)c(Cl)c1)C2 [Compound 121, N-benzyl-7-(4-bromo-3-chloro-benzoyl)-2-[4-(8-oxa-3-azabicyclo[3.2.1]octan-3-yl)phenyl]-3-oxo-6,8-dihydro-5H-imidazo[1,5-a]pyrazine-1-carboxamide]",50 to 500,–
"O=C(NCc1ccccc1)c1c2n(c(=O)n1-c1ccc(N3CCN(CC(F)(F)F)CC3)cc1)CCN(C(=O)c1ccc(Br)c(Cl)c1)C2 [Compound 122, N-benzyl-7-(4-bromo-3-chloro-benzoyl)-3-oxo-2-[4-[4-(2,2,2-trifluoroethyl)piperazin-1-yl]phenyl]-6,8-dihydro-5H-imidazo[1,5-a]pyrazine-1-carboxamide]",50 to 500,–
"Cn1cnc2cc(-n3c(C(=O)NCc4ccccc4)c4n(c3=O)CCN(C(=O)c3ccc(Br)c(Cl)c3)C4)ccc21 [Compound 123, N-benzyl-7-(4-bromo-3-chloro-benzoyl)-2-(1-methylbenzimidazol-5-yl)-3-oxo-6,8-dihydro-5H-imidazo[1,5-a]pyrazine-1-carboxamide]",500 to 5000,–
